# Data: PMC5242521 (PLoS ONE, 2017)
# Like-named read-outs stand apart in the source and are kept apart here.
# How the values were obtained:
# Type in all cases: cell-based
# MRP2 = biological target: T1, MRP2 (Homo sapiens, UniProt Q92887); assay: MRP2 activity: CF accumulation in HuH-7 cells; settings: for inhibition at 100 μM: human, pH 7.4
# T1 construct: multidrug resistance-associated protein (MRP) 2/ABCC2-expressing human hepatoma HuH-7 cells; endogenous in cells; host or cells: HuH-7 human hepatoma cells
# T1 sequence (Q92887 whole entry): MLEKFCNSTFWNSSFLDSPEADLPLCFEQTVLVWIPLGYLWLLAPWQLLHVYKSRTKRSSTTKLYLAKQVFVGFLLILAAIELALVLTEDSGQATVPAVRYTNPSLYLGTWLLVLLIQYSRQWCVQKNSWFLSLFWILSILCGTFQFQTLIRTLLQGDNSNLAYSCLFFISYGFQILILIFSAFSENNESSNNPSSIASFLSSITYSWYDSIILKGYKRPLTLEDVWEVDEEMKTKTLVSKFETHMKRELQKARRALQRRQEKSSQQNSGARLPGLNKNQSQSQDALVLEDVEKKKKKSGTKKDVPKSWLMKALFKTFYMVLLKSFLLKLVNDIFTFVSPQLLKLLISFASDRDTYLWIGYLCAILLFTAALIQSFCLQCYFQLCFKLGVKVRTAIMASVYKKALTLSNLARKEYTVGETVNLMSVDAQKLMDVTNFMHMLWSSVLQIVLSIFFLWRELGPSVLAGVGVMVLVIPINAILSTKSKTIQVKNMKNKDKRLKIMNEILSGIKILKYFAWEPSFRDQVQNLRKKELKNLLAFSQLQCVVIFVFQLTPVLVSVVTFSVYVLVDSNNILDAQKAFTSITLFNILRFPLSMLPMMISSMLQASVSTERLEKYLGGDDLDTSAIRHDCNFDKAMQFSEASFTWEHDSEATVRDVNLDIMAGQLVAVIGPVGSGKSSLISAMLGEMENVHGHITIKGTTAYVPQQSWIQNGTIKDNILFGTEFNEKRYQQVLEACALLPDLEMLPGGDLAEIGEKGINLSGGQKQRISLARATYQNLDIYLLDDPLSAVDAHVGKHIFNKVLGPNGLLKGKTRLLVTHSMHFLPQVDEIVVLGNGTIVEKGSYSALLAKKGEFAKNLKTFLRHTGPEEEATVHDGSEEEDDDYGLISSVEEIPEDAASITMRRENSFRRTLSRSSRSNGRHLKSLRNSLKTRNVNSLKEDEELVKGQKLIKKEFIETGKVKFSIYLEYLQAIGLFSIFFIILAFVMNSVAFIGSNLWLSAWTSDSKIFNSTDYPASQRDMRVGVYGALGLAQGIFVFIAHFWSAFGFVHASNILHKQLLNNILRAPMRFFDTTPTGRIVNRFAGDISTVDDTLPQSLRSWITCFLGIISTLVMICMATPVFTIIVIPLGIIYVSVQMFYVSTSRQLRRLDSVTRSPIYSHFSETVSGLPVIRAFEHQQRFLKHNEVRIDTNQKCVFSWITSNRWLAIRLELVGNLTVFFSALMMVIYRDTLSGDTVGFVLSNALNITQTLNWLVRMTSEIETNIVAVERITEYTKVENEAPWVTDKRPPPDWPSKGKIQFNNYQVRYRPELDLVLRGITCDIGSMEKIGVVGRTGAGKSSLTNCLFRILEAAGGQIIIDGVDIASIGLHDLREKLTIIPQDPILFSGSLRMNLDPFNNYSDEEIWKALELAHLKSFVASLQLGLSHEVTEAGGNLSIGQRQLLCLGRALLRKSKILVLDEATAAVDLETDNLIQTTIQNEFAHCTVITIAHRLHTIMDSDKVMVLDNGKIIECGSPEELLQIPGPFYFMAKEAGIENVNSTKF
# Description: (§1) The initial tested concentration of pyrethroids was 100 μM.
# OATP1B3 = biological target: T2, OATP1B3 (Homo sapiens, UniProt Q9NPD5); assay: OATP1B3 activity: fluorescein accumulation in CHO-OATP1B3 cells; settings: pyrethroid up to 100 μM
# T2 construct: expressed in transfected cells; host or cells: CHO
# T2 sequence (Q9NPD5 1-702): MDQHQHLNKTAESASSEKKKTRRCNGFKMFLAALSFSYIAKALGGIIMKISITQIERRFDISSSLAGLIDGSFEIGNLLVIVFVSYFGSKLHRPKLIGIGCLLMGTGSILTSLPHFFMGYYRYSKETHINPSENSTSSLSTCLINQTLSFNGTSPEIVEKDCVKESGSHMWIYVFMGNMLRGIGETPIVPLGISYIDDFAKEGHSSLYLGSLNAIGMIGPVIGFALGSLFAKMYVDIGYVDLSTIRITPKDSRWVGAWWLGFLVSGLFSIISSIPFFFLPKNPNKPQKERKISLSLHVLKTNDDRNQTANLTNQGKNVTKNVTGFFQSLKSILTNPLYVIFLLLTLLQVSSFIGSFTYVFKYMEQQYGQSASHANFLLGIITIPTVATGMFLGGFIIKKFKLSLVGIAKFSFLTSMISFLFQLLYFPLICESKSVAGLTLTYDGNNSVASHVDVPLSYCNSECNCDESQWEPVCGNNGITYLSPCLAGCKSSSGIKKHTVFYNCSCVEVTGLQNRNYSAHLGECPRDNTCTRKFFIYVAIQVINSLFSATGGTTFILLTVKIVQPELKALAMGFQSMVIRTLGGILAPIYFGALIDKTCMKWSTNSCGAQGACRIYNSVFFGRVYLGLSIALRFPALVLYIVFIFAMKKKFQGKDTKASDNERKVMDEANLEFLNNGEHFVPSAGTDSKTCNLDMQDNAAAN
# Description: (§2) The effects of pyrethroids on activity of ABC and SLC transporters were determined through measuring cellular accumulation or retention of fluorescent or radiolabeled reference substrates for transporters, in the presence or absence of reference inhibitors, as previously described [41].
# For accumulation assays (performed for all transporters, excepted BCRP), transporter-expressing cells usually cultured in 48-well plates were first incubated at 37°C with reference substrates in the absence (control) or presence of pyrethroids or reference inhibitors, in a well-defined transport assay medium [42], consisting of 136 mM NaCl, 5.3 mM KCl, 1.1mM KH2PO4, 0.8 mM MgSO4, 1.8 mM CaCl2, 10 mM HEPES, 11 mM D-glucose and adjusted to pH = 7.4 (excepted for MATE transporter assays, for which pH was set to 8.4). The nature of substrates and reference inhibitors and the incubation times with substrates, that varied according to the transporter, were selected in agreement with previous studies [41, 43] and are indicated in S3 Table. The total incubation volume with substrates was 200 μL/well. […]
# (§3) Intracellular concentrations of reference substrates were initially expressed as fluorescence arbitrary units (for fluorescent dye substrates) or as moles (for radiolabeled substrates) and normalized to cellular protein content, determined by the Bradford method [44]. […]
# BCRP = biological target: T3, BCRP (Homo sapiens, UniProt Q9UNQ0); assay: BCRP activity: Hoechst 33342 retention in HEK-BCRP cells; settings: for inhibition at 90 min, 100 μM: human
# T3 construct: expressed in transfected cells; host or cells: HEK293
# T3 sequence (Q9UNQ0 1-655): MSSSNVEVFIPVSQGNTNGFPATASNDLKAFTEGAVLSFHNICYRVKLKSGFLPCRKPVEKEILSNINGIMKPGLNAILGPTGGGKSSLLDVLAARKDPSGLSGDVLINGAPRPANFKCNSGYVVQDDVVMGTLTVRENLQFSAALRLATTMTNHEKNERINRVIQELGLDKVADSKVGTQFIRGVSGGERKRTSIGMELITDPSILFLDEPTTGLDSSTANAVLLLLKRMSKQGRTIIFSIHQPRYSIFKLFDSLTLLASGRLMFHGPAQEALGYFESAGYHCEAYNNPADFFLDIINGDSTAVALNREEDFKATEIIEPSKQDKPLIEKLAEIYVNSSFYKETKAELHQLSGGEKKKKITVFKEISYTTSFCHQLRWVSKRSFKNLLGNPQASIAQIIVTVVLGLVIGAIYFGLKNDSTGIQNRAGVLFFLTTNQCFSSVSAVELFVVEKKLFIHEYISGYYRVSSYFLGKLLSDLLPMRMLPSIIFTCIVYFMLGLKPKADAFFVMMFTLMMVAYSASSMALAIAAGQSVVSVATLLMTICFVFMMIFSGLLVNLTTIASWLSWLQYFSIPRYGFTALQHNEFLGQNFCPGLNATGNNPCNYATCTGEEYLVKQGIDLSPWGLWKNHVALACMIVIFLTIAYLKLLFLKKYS
# Description: For retention assay (used for BCRP activity), HEK-BCRP cells cultured in 48-well plates were first loaded at 37°C with transport assay (200 μL/well) containing 16.2 μM Hoechst 33342 for 30 min. After washing twice in PBS (200 μL/well/washing), cells were reincubated in Hoechst 33342-free transport assay medium (200 μL/well) at 37°C for 90 min in the absence or presence of pyrethroids or of the BCRP reference inhibitor fumitremorgin C used at 10 μM. Cells were next lysed in distilled water (155 μL/well) after washing twice in PBS (200 μL/well/washing). The cell lysate was finally used for determining cellular protein content and intracellular retention of Hoechst 33342 (by spectrofluorimetry: excitation and emission wavelengths were 355 and 460 nm, respectively), as described above.
# as §1
# MATE2-K = biological target: T4, MATE2-K (Homo sapiens, UniProt Q86VL8); assay: MATE2-K activity: TEA accumulation in HEK-MATE2-K cells
# T4 construct: expressed in transfected cells; host or cells: HEK293
# T4 sequence (Q86VL8 1-566 isoform Q86VL8-3): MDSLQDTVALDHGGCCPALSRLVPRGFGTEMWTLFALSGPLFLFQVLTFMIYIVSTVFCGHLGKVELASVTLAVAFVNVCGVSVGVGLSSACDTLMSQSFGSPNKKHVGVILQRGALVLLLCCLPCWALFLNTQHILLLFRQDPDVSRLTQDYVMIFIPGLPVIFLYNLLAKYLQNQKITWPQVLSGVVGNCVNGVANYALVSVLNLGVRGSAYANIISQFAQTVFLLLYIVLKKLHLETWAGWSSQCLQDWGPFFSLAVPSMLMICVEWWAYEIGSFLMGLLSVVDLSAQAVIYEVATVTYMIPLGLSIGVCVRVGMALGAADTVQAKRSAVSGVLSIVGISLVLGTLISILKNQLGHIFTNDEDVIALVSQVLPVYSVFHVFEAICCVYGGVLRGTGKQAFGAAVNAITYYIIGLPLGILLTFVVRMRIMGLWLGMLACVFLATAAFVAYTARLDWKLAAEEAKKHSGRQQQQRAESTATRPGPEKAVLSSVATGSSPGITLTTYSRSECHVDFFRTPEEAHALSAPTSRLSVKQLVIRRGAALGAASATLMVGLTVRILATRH
# Description: as §2
# For accumulation assays (performed for all transporters, excepted BCRP), transporter-expressing cells usually cultured in 48-well plates were first incubated at 37°C with reference substrates in the absence (control) or presence of pyrethroids or reference inhibitors, in a well-defined transport assay medium [42], consisting of 136 mM NaCl, 5.3 mM KCl, 1.1mM KH2PO4, 0.8 mM MgSO4, 1.8 mM CaCl2, 10 mM HEPES, 11 mM D-glucose and adjusted to pH = 7.4 (excepted for MATE transporter assays, for which pH was set to 8.4). The nature of substrates and reference inhibitors and the incubation times with substrates, that varied according to the transporter, were selected in agreement with previous studies [41, 43] and are indicated in S3 Table. The total incubation volume with substrates was 200 μL/well. After washing twice in phosphate-buffered saline (PBS) (200 μL/well/washing), cells were lysed in distilled water (155 μL/well). An aliquot of cell lysate (5 μL) was then taken for determining cellular protein content by the Bradford method [44]. The rest of lysate (150 μL/well) was used for measuring intracellular accumulation of reference substrates by scintillation counting or spectrofluorimetry using a SpectraMax Gemini SX spectrofluorometer (Molecular Devices, Sunnyvale, CA, USA) (excitation and emission wavelengths were 485 and 535 nm, respectively, for rhodamine 123 and fluorescein, and 355 and 460 nm, respectively, for DAPI).
# as §3
# OATP1B1 = biological target: T5, OATP1B1 (Homo sapiens, UniProt Q9Y6L6); assay: OATP1B1 activity: E3S accumulation in CHO-OATP1B1 cells; settings: for inhibition at 100 μM: human, pH 7.4
# T5 construct: expressed in transfected cells; host or cells: CHO
# T5 sequence (Q9Y6L6 1-691): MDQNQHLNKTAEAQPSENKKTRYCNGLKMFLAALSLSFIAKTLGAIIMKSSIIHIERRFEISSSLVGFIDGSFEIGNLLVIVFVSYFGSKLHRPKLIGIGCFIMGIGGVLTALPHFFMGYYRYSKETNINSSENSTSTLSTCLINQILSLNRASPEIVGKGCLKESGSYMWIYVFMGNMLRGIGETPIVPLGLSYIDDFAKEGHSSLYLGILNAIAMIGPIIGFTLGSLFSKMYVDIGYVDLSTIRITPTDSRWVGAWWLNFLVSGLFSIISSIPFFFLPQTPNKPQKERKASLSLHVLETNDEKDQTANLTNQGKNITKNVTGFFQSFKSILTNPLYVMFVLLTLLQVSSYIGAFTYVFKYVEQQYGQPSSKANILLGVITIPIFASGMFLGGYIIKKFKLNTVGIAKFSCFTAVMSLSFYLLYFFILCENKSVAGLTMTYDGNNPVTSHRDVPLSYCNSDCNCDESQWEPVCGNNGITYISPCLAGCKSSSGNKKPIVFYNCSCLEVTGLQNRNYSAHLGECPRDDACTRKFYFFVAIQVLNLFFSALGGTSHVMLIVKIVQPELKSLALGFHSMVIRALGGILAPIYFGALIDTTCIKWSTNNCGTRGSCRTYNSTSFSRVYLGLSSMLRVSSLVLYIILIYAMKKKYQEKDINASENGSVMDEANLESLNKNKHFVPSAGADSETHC
# Description: as §1
Structure (SMILES),IC50 (MRP2) [µM],"inhibition at 100 μM (MRP2; pyrethroid 100 μM, HuH-7 cells, CF, read-out: inhibition of MRP2 activity) [%]",effect on OATP1B3 activity (OATP1B3),effect on OATP1B3 activity (OATP1B3; listed as Tetramethrin),IC50 (BCRP) [µM],"inhibition at 90 min, 100 μM (BCRP; pyrethroid 100 μM, HEK-BCRP cells, Hoechst 33342, read-out: inhibition of BCRP activity) [%]",effect on MATE2-K activity (MATE2-K),IC50 (OATP1B1) [µM],"inhibition at 100 μM (OATP1B1; pyrethroid 100 μM, CHO-OATP1B1 cells, E3S, read-out: inhibition of OATP1B1 activity) [%]",inhibition at 100 μM (MRP2) [%],"inhibition at 90 min, 100 μM (BCRP) [%]","effect on MATE2-K activity (MATE2-K; pyrethroid up to 100 μM, HEK-MATE2-K cells, TEA)","effect on MATE2-K activity (MATE2-K; pyrethroid up to 100 μM, HEK-MATE2-K cells, TEA, listed as Allethrin)",inhibition at 100 μM (OATP1B1) [%]
CC(C)=CC1C(C(=O)OCN2C(=O)C3=C(CCCC3)C2=O)C1(C)C (centres unmarked) [tetramethrin],65.5,58.3,failed to alter,No effect (up to 100 μM),72.5,67.1,No effect (up to 100 μM),5.7,> 85,–,–,–,–,–
C=CCC1=C(C)C(OC(=O)C2C(C=C(C)C)C2(C)C)CC1=O (centres unmarked) [allethrin],48.2,–,–,–,42.5,–,–,16.5,–,83.8,83.9,failed to alter,No effect (up to 100 μM),> 85
